Values quoted from earlier work as cited in US20260373185A1, “METHODS FOR SEQUENTIALLY ADMINISTERING TAS-102 AND BCL-2 INHIBITOR FOR CANCER TREATMENT” (Health Research, Inc., priority 2023, published 2026).
One block for each molecule: values may come before it.

Tests used:
p53-deficient cancers = conditions: current DNA-damaging drugs
BCL-w = conditions: cell-free assays
A1 = conditions: relative to BCL-xL, BCL-2 and BCL-w

SMILES: Nc1ccn([C@@H]2O[C@H](CO)[C@@H](O)C2(F)F)c(=O)n1 [gemcitabine]
toxicity by p53 status (p53-deficient cancers): toxicity regardless of p53 status

SMILES: CC1(C)CCC(CN2CCN(c3ccc(C(=O)NS(=O)(=O)c4ccc(NCC5CCOCC5)c([N+](=O)[O-])c4)c(Oc4cnc5[nH]ccc5c4)c3)CC2)=C(c2ccc(Cl)cc2)C1 [Venetoclax]
activity to MCL-1 (MCL-1; cell-free assays): no activity

Ki (BCL-w): ≤ 1 nM | binding to Mcl-1 (MCL-1; relative to BCL-xL, BCL-2 and BCL-w): binds more weakly | binding to A1 (A1): binds more weakly
SMILES: CC1(C)CCC(c2ccc(Cl)cc2)=C(CN2CCN(c3ccc(C(=O)NS(=O)(=O)c4ccc(N[C@H](CCN5CCOCC5)CSc5ccccc5)c(S(=O)(=O)C(F)(F)F)c4)cc3)CC2)C1 [Navitoclax]

SMILES: N.N.[Cl][Pt][Cl] [cisplatin]
toxicity by p53 status (p53-deficient cancers): toxicity regardless of p53 status
